Reference: JP2005314435A, “循環器疾患治療剤および健康食品” (Individual, priority 2000, dated 2002)

Key:
Assay type in all cases: in vivo
[1] = test system: spontaneously hypertensive rat [自然発症高血圧ラット(SHR)]; assay: Example 1: blood pressure lowering and body weight in spontaneously hypertensive rats (1% saline drinking water)
[2] = test system: WKY rat (Wistar-Kyoto rat) [WKYラット(Wistar-Kyoto rat)]; assay: Example 1: blood pressure and body weight in normotensive WKY rats (1% saline drinking water)
[3] = test system: spontaneously stroke-developing rat [自然発症脳卒中ラット(SHR-SP)]; assay: Example 2: blood pressure lowering, body weight and mortality in stroke-prone rats (1% saline drinking water); details: for blood pressure (systolic) / body weight: 1.8% in feed
[4] = test system: SHR-SP rat, neurological symptoms [SHR−SPに対する神経症状]; assay: Example 2: delay of neurological symptom onset and life prolongation in SHR-SP (1% saline drinking water); details: for mean number of days from onset to death / mean number of days to death / mean number of days to onset of neurological symptoms: 1.8% in feed
[5] = test system: spontaneously stroke-developing rat [自然発症脳卒中ラット (SHR−SP)]; assay: Example 3: blood pressure lowering and body weight in SHR-SP given 0.003% L-NAME drinking water
[6] = test system: SHR-SP rat, neurological symptoms [SHR−SPに対する神経症状]; assay: Example 3: delay of neurological symptom onset, life prolongation and brain microvessel protection in SHR-SP given 0.003% L-NAME
[7] = FA 1.8% in feed until week 6, then normal feed, week 9
[8] = FA 1.8% in feed until week 6, then normal feed, week 12
[9] = FA 1.8% in feed, pre-value (week 0)
[10] = FA 2.7% in feed until week 6, then normal feed, week 9
[11] = FA 2.7% in feed until week 6, then normal feed, week 12
[12] = FA 2.7% in feed, pre-value (week 0)
[13] = WKY, FA 2.7% in feed until week 6, then normal feed, week 9
[14] = WKY, FA 2.7% in feed until week 6, then normal feed, week 12
[15] = WKY, FA 2.7% in feed, pre-value (week 0)
[16] = FA 2.7% in feed, 8-week observation
[17] = FA 2.7% in feed, n = 6, 8-week observation
[18] = n = 7, listed as FA−Arg塩, L−アルギニン塩
[19] = FA-Arg 1.8% in feed, pre-value (week 0)
[20] = FA-Arg 1.8% in feed, 8-week observation
[21] = FA-Arg 1.8% in feed, n = 7, 8-week observation

## COc1cc(C=CC(=O)O)ccc1O [FA, フェルラ酸]
[1]; FA 1.8% group, at week 9-10 (after change to normal feed at week 6)
  deaths: 1 cases
[1]; [7]
  blood pressure (systolic): 225.6 ±6.1 mmHg
  body weight: 293.8 ± 5.0 g
[1]; [8]
  blood pressure (systolic): 233.6 ± 6.0 mmHg
  body weight: 307.0 ± 6.7 g
[1]; [9]
  blood pressure (systolic): 128.5 ±2.2 mmHg
  body weight: 135.5 ± 1.8 g
[1]; FA 1.8% in feed, week 6
  blood pressure (systolic): 201.1 ±6.2 mmHg
  body weight: 264.8 ± 4.1 g
[1]; [10]
  blood pressure (systolic): 211.8 ±3.1 mmHg
  body weight: 292.1 ± 3.0 g
[1]; [11]
  blood pressure (systolic): 217.7 ± 4.7 mmHg
  body weight: 309.4 ± 3.1 g
[1]; [12]
  blood pressure (systolic): 135.4 ±2.7 mmHg
  body weight: 136.8 ± 1.5 g
[1]; FA 2.7% in feed, week 6
  blood pressure (systolic): 192.0 ±2.5 mmHg
  body weight: 239.5 ± 3.4 g
[1]; FA groups
  suppression of body weight (in words): 体重の有意な抑制がみられた
[1]; during 6 weeks of administration
  blood pressure lowering effect (in words): 用量依存的に有意な降圧作用を示した
[2]; [13]
  blood pressure (systolic): 124.0 ±3.7 mmHg
  body weight: 310.1 ± 7.3 g
[2]; [14]
  blood pressure (systolic): 135.5 ± 2.8 mmHg
  body weight: 349.2 ± 12.0 g
[2]; [15]
  blood pressure (systolic): 99.5 ±3.1 mmHg
  body weight: 122.2 ± 2.8 g
[2]; WKY, FA 2.7% in feed, week 6
  blood pressure (systolic): 128.4 ±4.7 mmHg
  body weight: 263.2 ± 4.3 g
[2]; WKY, FA group
  suppression of body weight (in words): 体重の有意な抑制がみられた
[2]; normotensive WKY rats
  blood pressure lowering effect (in words): 降圧作用を示さず
[3]; pre-value (week 0)
  blood pressure (systolic): 124.5 ±5.5 mmHg
  body weight: 94.0 ± 2.3 g
[3]; week 2
  blood pressure (systolic): 150.2 ±6.1 mmHg
  body weight: 148.8 ± 3.3 g
[3]; week 4
  blood pressure (systolic): 203.4 ±4.6 mmHg
  body weight: 198.2 ± 3.1 g
[3]; week 7
  body weight: 233.0 ± 3.8 g
[3]; from week 2 on, versus control without test substance
  blood pressure lowering effect (in words): 有意な降圧効果が観察された
[4]; n = 7
  mean number of days from onset to death: 10.4 ± 0.6 days
  mean number of days to death: 70.0 ± 1.8 days
  mean number of days to onset of neurological symptoms: 59.6 ± 1.4 days
[4]; versus control without test substance
  delay of neurological symptom onset and life prolongation (in words): 明らかな神経症状発症遅延効果および延命効果を示している
[5]; [12]
  blood pressure (systolic): 115.0 ±4.7 mmHg
  body weight: 107.7 ± 1.9 g
[5]; FA 2.7% in feed, week 2
  blood pressure (systolic): 141.4 ±3.1 mmHg
  body weight: 137.6 ± 3.0 g
[5]; FA 2.7% in feed, week 4
  blood pressure (systolic): 185.1± 1.9 mmHg
  body weight: 175.9 ± 3.2 g
[5]; FA 2.7% in feed, week 6
  blood pressure (systolic): 203.1±7.5 mmHg
  body weight: 195.1 ± 5.0 g
[5]; FA 2.7% in feed, week 8
  blood pressure (systolic): 207.8± 6.0 mmHg
  body weight: 213.5 ± 7.4 g
[6]; 8-week observation, versus control
  preventive effect (in words): 明らかな予防効果が見られた
[6]; [16]
  animals that died / animals used: 0/6
  animals with onset of neurological symptoms / animals used: 0/6
[6]; [17]
  mean number of days to death: 56.0 ± 0.0 days
  mean number of days to onset of neurological symptoms: 56.0 ± 0.0 days
[6]; from start of administration, versus control
  mean number of days to onset of neurological symptoms or death (in words): 有意に延長していた
[6]; order FA group, FA-Arg salt group
  protection of brain microvessels (in words): FA投与群、FA−Arg塩投与群の順で脳内微細血管が保護されたことが示唆された

## COc1cc(C=CC(=O)O)ccc1O [FA−Arg, フェルラ酸−L−アルギニン塩]
[3]; pre-value (week 0), L−アルギニン塩
  blood pressure (systolic): 122.8 ±4.6 mmHg
  body weight: 103.2 ± 3.2 g
[3]; week 2, L−アルギニン塩
  blood pressure (systolic): 155.2 ±4.6 mmHg
  body weight: 156.7 ± 3.8 g
[3]; week 4, L−アルギニン塩
  blood pressure (systolic): 196.1 ± 5.8 mmHg
  body weight: 204.4 ± 4.5 g
[3]; week 7, L−アルギニン塩
  body weight: 226.4 ± 10.9 g
[4]; [18]
  mean number of days from onset to death: 8.2 ± 2.2 days
  mean number of days to death: 73.9 ± 4.7 days
  mean number of days to onset of neurological symptoms: 65.4 ± 4.8 days
[5]; FA-Arg 1.8% in feed, at week 7
  deaths: 1 cases
[5]; FA-Arg 1.8% in feed, at week 8
  deaths: 1 cases
[5]; [19]
  blood pressure (systolic): 116.0 ±4.3 mmHg
  body weight: 102.7 ± 2.9 g
[5]; FA-Arg 1.8% in feed, week 2
  blood pressure (systolic): 146.4 ±5.0 mmHg
  body weight: 179.9 ± 4.0 g
[5]; FA-Arg 1.8% in feed, week 4
  blood pressure (systolic): 183.6± 5.7 mmHg
  body weight: 225.7 ± 3.0 g
[5]; FA-Arg 1.8% in feed, week 6
  blood pressure (systolic): 205.7±7.7 mmHg
  body weight: 244.3 ± 4.2 g
[5]; FA-Arg 1.8% in feed, week 8
  blood pressure (systolic): 221.8± 7.1 mmHg
  body weight: 263.6 ± 6.9 g
[6]; [20]
  animals that died / animals used: 2/7
  animals with onset of neurological symptoms / animals used: 2/7
[6]; [21]
  mean number of days to death: 55.0 ± 1.0 days
  mean number of days to onset of neurological symptoms: 54.9 ± 1.1 days
